Test results reported in patent US20050245511A1, “Novel compounds that inhibit tryptase activity” (Morphochem AG, priority 1999, published 2005).
Structures can show the parent of a compound that is named as a salt.

Key:
[1] = target: human recombinant tryptase (Homo sapiens, UniProt Q15661); assay: inhibition of the amidolytic activity of tryptase, chromogenic peptide substrate; assay type: biochemical; details: 2.8 nM human recombinant tryptase, Hepes buffer pH 7.8, 200 nM heparin, substrate tosyl-glycyl-prolyl-lysine-4-nitranilide acetate, room temperature
Experimental: (§1) To show the inhibition of the catalytic activity of tryptase one may use chromogenic peptide substrates. The inhibition of the amidolytic activity of tryptase by the compounds described above was shown as follows. The measurements were carried out at room temperature in microtiter plates. The compounds were dissolved in dimethylsulfoxide and 5 μl of this solution were added to a 2.8 nM solution of human recombinant tryptase in a Hepes buffer (pH: 7.8 In analogy to example 1 and using 100 mM Hepes, 140 mM NaCl, 0.1% PEG 6000, 0.05% Tween 80 and 200 nM heparin). Finally 750 μM of tosyl-glycyl-prolyl-lysine-4-nitranilide acetate in Hepes buffer were added and the hydrolysis of the substrate was followed with a spektrophometer. The same method but using N-methoxycarbonyl-D-norleucyl-glycyl-L-arginine-4-nitroanilide acetate as substrate was used to determine the inhibition of the proteolytic activity of factor Xa, i.e., another serin protease, by the compounds.

factor Xa = factor Xa (Homo sapiens, UniProt P00742); assay: inhibition of the proteolytic activity of factor Xa, chromogenic peptide substrate; assay type: biochemical; details: same method, substrate N-methoxycarbonyl-D-norleucyl-glycyl-L-arginine-4-nitroanilide acetate
Experimental: as §1

Chain of human recombinant tryptase (Q15661 31-275): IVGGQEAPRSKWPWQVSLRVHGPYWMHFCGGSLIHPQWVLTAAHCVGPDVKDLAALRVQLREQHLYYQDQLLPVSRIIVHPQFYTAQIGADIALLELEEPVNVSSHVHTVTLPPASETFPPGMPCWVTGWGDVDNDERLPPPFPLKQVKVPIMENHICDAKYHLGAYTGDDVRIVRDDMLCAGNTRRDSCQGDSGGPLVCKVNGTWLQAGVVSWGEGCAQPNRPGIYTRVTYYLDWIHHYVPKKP
Chain of factor Xa (P00742 235-488 limits assumed): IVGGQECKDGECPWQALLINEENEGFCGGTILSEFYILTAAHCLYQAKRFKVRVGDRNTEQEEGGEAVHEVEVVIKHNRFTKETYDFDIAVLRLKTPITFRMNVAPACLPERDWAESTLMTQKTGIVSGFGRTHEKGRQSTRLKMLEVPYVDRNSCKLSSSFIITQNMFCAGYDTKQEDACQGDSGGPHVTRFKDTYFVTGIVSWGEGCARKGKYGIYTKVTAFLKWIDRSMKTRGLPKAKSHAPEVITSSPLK
Chain of factor Xa (P00742 41-179 partner limits assumed): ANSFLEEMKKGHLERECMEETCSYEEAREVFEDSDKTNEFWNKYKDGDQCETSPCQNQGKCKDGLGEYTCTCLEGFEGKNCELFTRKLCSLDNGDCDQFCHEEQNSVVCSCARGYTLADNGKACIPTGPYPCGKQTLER

Row | Structure (SMILES) | IC50 [1] [µM] | IC50 (factor Xa) [µM]
1 | N=C(N)c1ccc(CNC(C(=O)NCC(=O)NCc2cccnc2)c2ccc[nH]2)cc1 (stereo not drawn) [Example 22, 2-[({4-[amino(imino)methyl]phenyl}methyl)amino]-N-{2-oxo-2-[(3-pyridinylmethyl)amino]ethyl)-2-(1H-pyrrol-2-yl)acetamide hydrochloride] | < 0.09 | 15
2 | CC(NCc1ccc(C(=N)N)cc1)C(=O)NCC(=O)NCCc1ccccn1 (stereo not drawn) [Example 13, 2-[({4-[amino (imino)methyl]phenyl}methyl)amino]-N-(2-oxo-2-{[2-(2-pyridinyl)ethyl]amino}ethyl)propanamide hydrochloride] | < 0.09 | > 110
3 | N=C(N)c1cccc(NCC(=O)NCC(=O)NCCN2CCOCC2)c1 [Example 25, 2-({3-[amino(imino)methyl]phenyl}amino)-N-(2-([2-(4-morpholinyl)ethyl]amino}-2-oxoethyl)acetamide hydrochloride] | < 0.09 | 22.8
4 | CC(C)C(NC(=O)C(CO)Nc1cccc(C(=N)N)c1)C(=O)NCc1ccccc1 (stereo not drawn) [Example 17, 2-{[2-({3-[amino(imino)methyl]phenyl}amino)-3-hydroxypropanoyl]amino}-3-methyl-N-(phenylmethyl)butanamide hydrochloride] | < 0.09 | 7.6
5 | N=C(N)c1cccc(NCC(=O)NCC(=O)NCc2ccccc2)c1 [Example 14, 2-({3-[amino (imino)methyl]phenyl}amino)-N-{2-oxo-2-[(phenylmethyl)amino]ethyl}acetamide hydrochloride] | < 0.09 | 7.15
6 | COC(=O)c1ccc(C(NCc2ccc(C(=N)N)cc2)C(=O)NC(C(=O)NCCc2c[nH]c3ccccc23)C(C)C)cc1 (stereo not drawn) [Example 7, methyl 4-(1-[({4-[amino(imino)methyl]phenyl}methyl)amino]-2-{[1-({[2-(1H-indol-3-yl)ethyl]amino}carbonyl)-2-methylpropyl]amino}-2-oxoethyl)benzoate hydrochloride] | < 0.09 | > 110
7 | N=C(N)c1cccc(NCC(=O)NCC(=O)NCCc2c[nH]c3ccccc23)c1 [Example 2, 2-({3-[amino(imino)methyl]phenyl}amino)-N-(2-{[2-(1H-indol-3-yl)ethyl]amino}-2-oxoethyl)acetamide hydrochloride] | < 0.09 | 6.7
8 | N=C(N)c1cccc(NCC(=O)NCC(=O)NCCc2ccc(O)cc2)c1 [Example 9, 2-({3-[amino(imino)methyl]phenyl}amino)-N-(2-{[2-(4-hydroxyphenyl)ethyl]amino}-2-oxoethyl)acetamide hydrochloride] | < 0.09 | 2.4
9 | CC(C)C(Nc1cccc(C(=N)N)c1)C(=O)NCC(=O)NCCc1c[nH]c2ccccc12 (stereo not drawn) [Example 10, 2-({3-[amino(imino)methyl]phenyl}amino)-N-(2-{[2-(1H-indol-3-yl)ethyl]amino}-2-oxoethyl)-3-methylbutanamide hydrochloride] | < 0.09 | 55
10 | CC(C)C(NC(=O)C(CO)Nc1cccc(C(=N)N)c1)C(=O)NCc1ccc2c(c1)OCO2 (stereo not drawn) [Example 18, 2-{[2-({3-[amino(imino)methyl]phenyl}amino)-3-hydroxypropanoyl]amino}-N-(1,3-benzodioxol-5-ylmethyl)-3-methylbutanamide hydrochloride] | < 0.09 | 8.6
11 | N=C(N)c1ccc(CNCC(=O)NCC(=O)N2CCN(Cc3ccc4c(c3)OCO4)CC2)cc1 [Example 23, 2-[({4-(amino(imino)methyl)phenyl)methyl)amino]-N-(2-[4-(1,3-benzodioxol-5-ylmethyl)-1-piperazinyl]-2-oxoethyl}acetamide hydrochloride] | < 0.09 | > 110
12 | CC(C)C(NC(=O)C(CO)Nc1cccc(C(=N)N)c1)C(=O)NCCC(c1ccccc1)c1ccccc1 (stereo not drawn) [Example 19, 2-{[2-({3-[amino(imino)methyl]phenyl}amino)-3-hydroxypropanoyl]amino}-N-(3,3-diphenylpropyl)-3-methylbutanamide hydrochloride] | < 0.09 | 8.6
13 | N=C(N)c1cccc(NC(C(=O)NCC(=O)NCCc2c[nH]c3ccccc23)c2cc[nH]n2)c1 (stereo not drawn) [Example 4, 2-({3-[amino(imino)methyl]phenyl}amino)-N-(2-{[2-(1H-indol-3-yl)ethyl]amino}-2-oxoethyl)-2-(1H-pyrazol-3-yl)acetamide hydrochloride] | < 0.09 | 26.4
14 | CC(NC(=O)CNc1cccc(C(=N)N)c1)C(=O)NC1CCCCC1 (stereo not drawn) [Example 11, 2-{[({3-[amino(imino)methyl]phenyl}amino)acetyl]amino}-N-cyclohexylpropanamide hydrochloride] | < 0.09 | 4.45
15 | COc1ccc(CNC(=O)CNC(=O)CNc2cccc(C(=N)N)c2)cc1OC [Example 16, 2-({3-[amino (imino)methyl]phenyl}amino)-N-[2-({[3,4-bis(methyloxy)phenyl]methyl]amino}-2-oxoethyl)acetamide hydrochloride] | < 0.09 | 9.2
16 | N=C(N)c1cccc(NC(CO)C(=O)NCC(=O)N2CCc3ccccc3C2)c1 (stereo not drawn) [Example 15, 2-({3-[amino (imino)methyl]phenyl}amino)-N-[2-(3,4-dihydro-2 (1H)-isoquinolinyl)-2-oxoethyl]-3-hydroxypropanamide hydrochloride] | < 0.09 | 3.95
17 | COc1ccccc1N1CCN(C(=O)CNC(=O)CNc2cccc(C(=N)N)c2)CC1 [Example 24, 2-({3-[amino(imino)methyl]phenyl}amino)-N-(2-{4-[2-(methyloxy)phenyl]-1-piperazinyl}-2-oxoethyl)acetamide hydrochloride] | < 0.09 | 1.6
18 | N=C(N)c1cccc(NC(CO)C(=O)NCC(=O)NCCc2c[nH]c3ccccc23)c1 (stereo not drawn) [Example 8, 2-({3-[amino(imino)methyl]phenyl}amino)-3-hydroxy-N-(2-{[2-(1H-indol-3-yl)ethyl]amino}-2-oxoethyl)propanamide hydrochloride] | < 0.09 | 7.8
19 | CC(C)C(NC(=O)CNc1cccc(C(=N)N)c1)C(=O)NCCc1c[nH]c2ccccc12 (stereo not drawn) [Example 12, 2-{[({3-[amino(imino)methyl]phenyl}amino)acetyl]amino}-N-[2-(1H-indol-3-yl)ethyl]-3-methylbutanamide hydrochloride] | < 0.09 | 14.5
20 | COc1ccc(CNC(=O)C(C)NC(=O)CNCc2ccc(C(=N)N)cc2)cc1OC (stereo not drawn) [Example 6, 2-({[({4-[amino(imino)methyl]phenyl}methyl)amino]acetyl}amino)-N-{[3,4-bis(methyloxy)phenyl]methyl}propanamide hydrochloride] | < 0.09 | > 110
21 | N=C(N)c1ccc(CNC(C(=O)NCC(=O)NCCc2ccccn2)c2ccc[nH]2)cc1 (stereo not drawn) [Example 21, 2-[({4-(amino(imino)methyl)phenyl}methyl)amino]-N-(2-oxo-2-{[2-(2-pyridinyl)ethyl]amino}ethyl)-2-(1H-pyrrol-2-yl)acetamide hydrochloride] | < 0.09 | 7.7
22 | N=C(N)c1ccc(CNC(CO)C(=O)NCC(=O)NCCc2ccccn2)cc1 (stereo not drawn) [Example 20, 2-[({4-[amino(imino)methyl]phenyl}methyl)amino]-3-hydroxy-N-(2-oxo-2-{[2-(2-pyridinyl)ethyl]amino}ethyl)propanamide hydrochloride] | < 0.09 | > 110
23 | CC(Nc1cccc(C(=N)N)c1)C(=O)NCC(=O)NCCc1c[nH]c2ccccc12 (stereo not drawn) [Example 3, 2-({3-[amino(imino)methyl]phenyl}amino)-N-(2-{[2-(1H-indol-3-yl)ethyl]amino}-2-oxoethyl)propanamide hydrochloride] | < 0.09 | 21.9
24 | CCOC(=O)C(Nc1cccc(C(=N)N)c1)C(=O)NC(C(=O)NCCc1c[nH]c2ccccc12)C(C)C (stereo not drawn) [Example 5, ethyl 2-({3-[amino(imino)methyl]phenyl}amino)-3-{[1-({[2-(1H-indol-3-yl)ethyl]amino}carbonyl)-2-methylpropyl]amino}-3-oxopropanoate hydrochloride] | < 0.09 | 5.7
